Laboratory results reported in US12281304B2, “Compositions and methods for treating and preventing muscular disorders and dystrophies, steroid side effects, and inflammation” (Children's National Medical Center, priority 2018, dated 2025).

Test system: miRNAs in diaphragm muscle of mdx mice
Experiment: TaqMan low-density array (TLDA) miRNA profiling of diaphragm, discovery set (prophylactic mdx trial)
Assay type: in vivo, mouse
Details: mdx diaphragm, vs untreated mdx; Pred 5 mg/kg, Vam 15 mg/kg
Source text: Archival muscle samples (diaphragm) from two separate preclinical studies were obtained, with each trial showing a significant benefit from both prednisolone and vamorolone drug treatments (23). Prednisolone was used because it is the active form of prednisone, the current DMD standard of care. The first, “discovery set” of diaphragm muscles was from a prophylactic trial design where 2-week old (postnatal day 15) mdx or wild type control mice received oral dosing for 6 weeks with vehicle (cherry syrup), prednisolone (5 mg/kg), or vamorolone (15 mg/kg) as previously reported (23). The second, “validation set” of diaphragm muscles was from an extended trial in older mice where mdx or wild type mice were subjected to treadmill running to unmask mild phenotypes. Mice in this validation set were treated with either vehicle, prednisolone (5 mg/kg) or vamorolone (45 mg/kg) for four months beginning at two months of age (23). At the endpoint of each trial, diaphragm muscles were harvested and frozen in liquid nitrogen-cooled isopentane.
We extracted total RNA from 5 diaphragm muscles per treatment group in the discovery set of samples from 8-week old mice. RNA was extracted using a modified TRIzol protocol with isopropanol precipitation at −20° C. overnight. This RNA was reverse transcribed to cDNA using a High Capacity cDNA Reverse Transcription Kit with RNase Inhibitor (ThermoFisher; Carlsbad, Calif.), with miRNA-specific Megaplex RT Primers, Rodent Pools Set version 3.0 (ThermoFisher; Carlsbad, Calif.). Levels of each of the miRNAs were profiled in the discovery set using TAQMAN Array Rodent MiRNA A+B Cards Set v3.0 (ThermoFisher; Carlsbad, Calif.).
In the discovery set experiments, levels of each miRNA were quantified in TaqMan low-density arrays using ThermoFisher Cloud software with the Relative Quantification Application (ThermoFisher; Carlsbad, Calif.) tool. Data was analyzed by ANOVA with post-hoc comparison of each group to the mdx vehicle-treated group. […] A P-value of P≤0.05 was set as the significance threshold, without adjustment for multiple comparisons. To reduce false-positive discovery in this setting, an evidence-based approach was used to identify efficacy associated miRNAs where 1) results from the multiple groups were cross-referenced, and 2) all candidate miRNAs identified in this discovery set were then assayed in a separate validation set of mice. For the validation set experiments, levels of each individual miRNA were assayed in samples from a second, independent preclinical trial in adult mdx mice. Data from individual TaqMan Assays was quantified using QuantStudio Real-Time PCR version 1.3 software (Applied Biosystems; Foster City, Calif.). The levels of all miRNAs were normalized to the geometric mean of multiple control genes (60, 70). Comparison of groups was made by ANOVA with Holm-Sidak post-hoc test comparing each group to mdx vehicle.
To visualize behavior of miRNAs within individual mice for each group, heat map images were generated. Heat maps were generated using Rq values of TLDA array data exported from the Relative Quantification Application of the ThermoFisher Cloud software (ThermoFisher; Carlsbad, Calif.) tool. Heat maps of miRNA expression were produced using Hierarchical Clustering Explorer Version 3.5 (at www.cs.umd.edu/hcil/multi-cluster/) produced by the Human Computer Interaction Laboratory (University of Maryland; College Park, Md.).
To examine miRNA expression TaqMan low density qPCR array cards were used to profile approximately 750 miRNAs within diaphragm muscle from a discovery set of mice. Samples for this experiment came from a trial that utilized a prophylactic approach (23). Briefly, mdx mice undergo a stage of peak severity characterized by widespread inflammation and necrosis from approximately 3-8 weeks of age, followed by a recovery stage where mice show milder phenotypes (25). […]

## C[C@@H]1C[C@H]2[C@@H]3CCC4=CC(=O)C=C[C@]4(C)C3=CC[C@]2(C)[C@@]1(O)C(=O)CO [vamorolone]
  Rq mmu-miR-215-001200: 0.495
  Rq mmu-miR-218-000521: 0.759
  Rq mmu-miR-221-000524: 0.674
  Rq mmu-miR-222-002276: 0.733
  Rq mmu-miR-223-002295: 0.78
  Rq mmu-miR-296-5p-000527: 0.882
  Rq mmu-miR-301a-000528: 0.77
  Rq mmu-miR-301b-002600: 0.917
  Rq mmu-miR-322-001076: 0.785
  Rq mmu-miR-324-3p-002509: 0.748
  Rq mmu-miR-324-5p-000539: 0.946
  Rq mmu-miR-328-000543: 0.858
  Rq mmu-miR-335-3p-002185: 1.249
  Rq mmu-miR-335-5p-000546: 0.76
  Rq mmu-miR-337-3p-002532: 1.078
  Rq mmu-miR-338-3p-002252: 0.689
  Rq mmu-miR-339-5p-002257: 0.929
  Rq mmu-miR-340-3p-002259: 0.75
  Rq mmu-miR-340-5p-002258: 0.726
  Rq mmu-miR-342-3p-002260: 0.677
  Rq mmu-miR-342-5p-002527: 0.644
  Rq mmu-miR-345-5p-002528: 0.808
  Rq mmu-miR-350-002530: 0.797
  Rq mmu-miR-362-3p-002616: 0.902
  Rq mmu-miR-362-5p-002614: 1.469
  Rq mmu-miR-369-3p-000557: 0.963
  Rq mmu-miR-369-5p-001021: 1.023
  Rq mmu-miR-370-002275: 1.146
  Rq mmu-miR-376a#-002482: 0.985
  Rq mmu-miR-376a-001069: 0.991
  Rq mmu-miR-376b#-002451: 0.717
  Rq mmu-miR-376b-002452: 1.153
  Rq mmu-miR-376c-002450: 0.931
  Rq mmu-miR-379-001138: 0.987
  Rq mmu-miR-380-5p-002601: 1.243
  Rq mmu-miR-381-000571: 1.288
  Rq mmu-miR-382-000572: 1.081
  Rq mmu-miR-383-001767: 0.272
  Rq mmu-miR-384-5p-002602: 0.727
  Rq mmu-miR-409-3p-002332: 1.266
  Rq mmu-miR-410-001274: 1.158
  Rq mmu-miR-411-001610: 1.083
  Rq mmu-miR-431-001979: 1.358
  Rq mmu-miR-433-001028: 1.407
  Rq mmu-miR-434-5p-002581: 1.208
  Rq mmu-miR-450a-5p-002303: 0.862
  Rq mmu-miR-455-002455: 0.607
  Rq mmu-miR-467F-002886: 0.581
  Rq mmu-miR-467a-002587: 0.763
  Rq mmu-miR-467c-002517: 0.844
  Rq mmu-miR-483#-002560: 1.386
  Rq mmu-miR-486-001278: 0.988
  Rq mmu-miR-487b-001285: 1.133
  Rq mmu-miR-489-001302: 0.942
  Rq mmu-miR-491-001630: 0.842
  Rq mmu-miR-493-002519: 1.057
  Rq mmu-miR-494-002365: 0.988
  Rq mmu-miR-495-001663: 0.897
  Rq mmu-miR-497-001346: 0.652
  Rq mmu-miR-500-002606: 0.878
  Rq mmu-miR-501-3p-001651: 1.158
  Rq mmu-miR-503-002456: 1.115
  Rq mmu-miR-511-002549: 0.477
  Rq mmu-miR-532-3p-002355: 1.069
  Rq mmu-miR-532-5p-001518: 1.043
  Rq mmu-miR-540-3p-001310: 0.746
  Rq mmu-miR-541-002562: 1.043
  Rq mmu-miR-542-3p-001284: 0.82
  Rq mmu-miR-542-5p-002563: 1.044
  Rq mmu-miR-543-001298: 1.176
  Rq mmu-miR-543-002376: 0.918
  Rq mmu-miR-544-002550: 0.952
  Rq mmu-miR-574-3p-002349: 0.692
  Rq mmu-miR-652-002352: 0.636
  Rq mmu-miR-665-002607: 1.203
  Rq mmu-miR-669a-001683: 0.551
  Rq mmu-miR-673-3p-002449: 1.148
  Rq mmu-miR-673-001954: 1.475
  Rq mmu-miR-674#-001956: 0.765
  Rq mmu-miR-674-002021: 0.892
  Rq mmu-miR-675-3p-001941: 1.14
  Rq mmu-miR-682-001666: 0.675
  Rq mmu-miR-690-001677: 0.861
  Rq mmu-miR-706-001641: 0.664
  Rq mmu-miR-708-002341: 0.51
  Rq mmu-miR-720-001629: 0.957
  Rq mmu-miR-802-002029: 0.126
  Rq mmu-miR-805-002045: 1.128
  Rq mmu-miR-1274a-121150_mat: 1.244
  Rq mmu-miR-1941-3p-121130_mat: 1.459
  Rq mmu-miR-1943-121174_mat: 1.268
  Rq mmu-miR-1944-121189_mat: 1.023
  Rq mmu-miR-2146-241082_mat: 0.413
  Rq mmu-miR-30d-000420: 0.829
  Rq rno-miR-1-002064: 0.956
  Rq rno-miR-7#-001338: 0.799
  Rq rno-miR-7a#-002062: 0.887
  Rq rno-miR-20b-001326: 0.711
  Rq rno-miR-29c#-001818: 0.93
  Rq rno-miR-204#-002076: 0.813
  Rq rno-miR-224-000599: 0.837
  Rq rno-miR-345-3p-002061: 0.999
  Rq rno-miR-351-002063: 1.376
  Rq rno-miR-379#-002081: 1.014
  Rq rno-miR-381-001322: 1.013
  Rq rno-miR-489-001353: 0.844
  Rq rno-miR-664-001323: 0.771
